Assay [1] addresses T1, ABL2 (Homo sapiens, UniProt P42684).
T1 construct: endogenous in cells
Description: Kinobeads two-dose competition binding: ABL2. Conditions: sheet CATDS matrix 2; Gene Name ABL2.

In assay [2] the target is T2, ACOX1 (Homo sapiens, UniProt Q15067).
T2 construct: endogenous in cells
T2 sequence (Q15067 1-660): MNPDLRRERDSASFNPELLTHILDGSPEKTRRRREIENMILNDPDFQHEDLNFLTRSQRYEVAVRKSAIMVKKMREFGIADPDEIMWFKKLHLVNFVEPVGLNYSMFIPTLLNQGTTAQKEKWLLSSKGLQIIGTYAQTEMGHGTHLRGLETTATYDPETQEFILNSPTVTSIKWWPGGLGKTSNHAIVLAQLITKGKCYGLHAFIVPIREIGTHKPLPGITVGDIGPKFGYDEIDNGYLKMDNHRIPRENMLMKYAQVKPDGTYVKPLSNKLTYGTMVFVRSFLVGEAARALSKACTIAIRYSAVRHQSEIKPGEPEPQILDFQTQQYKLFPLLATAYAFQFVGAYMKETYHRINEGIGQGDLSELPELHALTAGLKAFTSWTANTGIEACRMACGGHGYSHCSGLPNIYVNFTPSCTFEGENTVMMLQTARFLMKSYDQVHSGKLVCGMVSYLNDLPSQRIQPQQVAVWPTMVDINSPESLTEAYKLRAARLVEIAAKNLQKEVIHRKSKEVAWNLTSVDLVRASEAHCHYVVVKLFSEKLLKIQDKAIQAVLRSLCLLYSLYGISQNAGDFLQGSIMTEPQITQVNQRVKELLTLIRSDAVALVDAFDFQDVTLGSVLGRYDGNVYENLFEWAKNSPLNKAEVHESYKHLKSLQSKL
Description: Kinobeads two-dose competition binding: ACOX1.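 For all read-outs here: competition of compounds with immobilized broad-spectrum kinase inhibitor beads in cell lysate at 100 and 1,000 nM, 45 min at 4 °C, bead-bound protein quantified by label-free MS versus DMSO.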 The settings on record: for CATDS: sheet CATDS matrix 2, Gene Name ACOX1.

In assay [3] the target is T3, ACAD11 (Homo sapiens, UniProt Q709F0).
T3 construct: endogenous in cells
T3 sequence (Q709F0 1-780): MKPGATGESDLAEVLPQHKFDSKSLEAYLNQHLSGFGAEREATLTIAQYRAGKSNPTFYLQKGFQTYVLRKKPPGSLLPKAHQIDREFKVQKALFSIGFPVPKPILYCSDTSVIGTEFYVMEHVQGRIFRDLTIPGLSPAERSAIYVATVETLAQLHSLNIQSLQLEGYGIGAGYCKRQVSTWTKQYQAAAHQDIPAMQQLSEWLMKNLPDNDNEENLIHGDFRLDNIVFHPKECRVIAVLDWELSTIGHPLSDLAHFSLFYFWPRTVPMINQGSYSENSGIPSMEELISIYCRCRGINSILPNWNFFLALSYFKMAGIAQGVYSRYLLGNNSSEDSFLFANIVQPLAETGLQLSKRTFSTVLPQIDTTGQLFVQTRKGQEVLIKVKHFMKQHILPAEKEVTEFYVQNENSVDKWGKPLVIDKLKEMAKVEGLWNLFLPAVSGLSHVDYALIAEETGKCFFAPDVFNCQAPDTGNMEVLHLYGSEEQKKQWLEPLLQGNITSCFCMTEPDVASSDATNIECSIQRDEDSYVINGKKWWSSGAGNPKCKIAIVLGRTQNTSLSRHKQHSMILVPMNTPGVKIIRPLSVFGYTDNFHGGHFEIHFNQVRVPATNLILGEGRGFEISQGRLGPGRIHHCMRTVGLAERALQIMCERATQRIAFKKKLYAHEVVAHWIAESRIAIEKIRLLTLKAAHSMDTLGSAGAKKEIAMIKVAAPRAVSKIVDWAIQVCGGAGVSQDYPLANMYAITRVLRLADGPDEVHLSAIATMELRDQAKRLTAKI
Nature of the assay: Kinobeads two-dose competition binding: ACAD11. The settings on record: sheet CATDS matrix 2; Gene Name ACAD11.

The target of assay [4] is T4, AAK1 (Homo sapiens, UniProt Q2M2I8).
T4 construct: to maximize the representation of endogenous proteins; endogenous in cells
Nature of the assay: Kinobeads two-dose competition binding: AAK1.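 For all read-outs here: kinobeads competition pulldown from cell lysate, compound preincubated 45 min at 4 °C, bead-bound protein measured by label-free mass spectrometry against DMSO vehicle control.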 Conditions: for potency estimated from few doses: read-out: Kinobeads Drugmatrix - all: apparent Kd, AAK1; for CATDS: sheet CATDS matrix 2, Gene Name AAK1.

The target in assay [5] is ABL1 (Homo sapiens, UniProt P00519). Description: Kinobeads two-dose competition binding: ABL1. The settings on record: sheet CATDS matrix 2; Gene Name ABL1.
[6] abbreviates: sheet "Kinobeads Drugmatrix - all", unit inferred, same values below 1000 recur in sheet "nanomolar".

Where two headings read alike, the source gives them in different places.

T1 sequence (P42684 whole entry): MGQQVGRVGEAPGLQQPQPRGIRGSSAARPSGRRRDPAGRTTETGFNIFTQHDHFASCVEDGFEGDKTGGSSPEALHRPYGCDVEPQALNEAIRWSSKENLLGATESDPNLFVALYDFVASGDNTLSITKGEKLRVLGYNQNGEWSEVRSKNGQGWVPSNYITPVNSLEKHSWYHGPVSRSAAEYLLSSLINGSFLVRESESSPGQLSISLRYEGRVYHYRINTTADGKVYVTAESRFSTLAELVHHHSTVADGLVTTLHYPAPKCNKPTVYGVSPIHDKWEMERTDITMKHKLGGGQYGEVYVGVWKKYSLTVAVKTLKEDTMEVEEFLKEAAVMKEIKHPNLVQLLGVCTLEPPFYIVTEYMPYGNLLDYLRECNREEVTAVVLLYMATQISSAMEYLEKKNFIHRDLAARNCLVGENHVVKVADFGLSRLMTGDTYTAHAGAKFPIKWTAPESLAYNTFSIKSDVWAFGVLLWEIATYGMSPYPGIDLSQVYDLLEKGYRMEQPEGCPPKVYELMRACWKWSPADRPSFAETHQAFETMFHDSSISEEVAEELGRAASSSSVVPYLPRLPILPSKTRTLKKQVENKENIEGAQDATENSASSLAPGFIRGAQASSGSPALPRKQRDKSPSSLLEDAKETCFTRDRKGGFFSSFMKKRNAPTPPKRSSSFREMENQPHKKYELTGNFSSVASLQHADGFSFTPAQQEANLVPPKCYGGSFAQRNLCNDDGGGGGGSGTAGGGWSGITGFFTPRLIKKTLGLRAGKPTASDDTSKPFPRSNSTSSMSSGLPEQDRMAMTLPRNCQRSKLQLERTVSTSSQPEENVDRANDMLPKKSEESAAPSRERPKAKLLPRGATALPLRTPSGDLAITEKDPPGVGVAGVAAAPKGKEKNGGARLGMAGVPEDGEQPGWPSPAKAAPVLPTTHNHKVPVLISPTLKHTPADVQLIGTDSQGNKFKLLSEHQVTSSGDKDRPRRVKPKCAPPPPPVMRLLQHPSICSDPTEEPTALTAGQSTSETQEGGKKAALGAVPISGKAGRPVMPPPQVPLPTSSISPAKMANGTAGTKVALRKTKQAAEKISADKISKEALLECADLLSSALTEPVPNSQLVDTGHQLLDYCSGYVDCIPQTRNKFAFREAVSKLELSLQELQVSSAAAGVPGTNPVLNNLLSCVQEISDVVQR
T4 sequence (Q2M2I8 whole entry): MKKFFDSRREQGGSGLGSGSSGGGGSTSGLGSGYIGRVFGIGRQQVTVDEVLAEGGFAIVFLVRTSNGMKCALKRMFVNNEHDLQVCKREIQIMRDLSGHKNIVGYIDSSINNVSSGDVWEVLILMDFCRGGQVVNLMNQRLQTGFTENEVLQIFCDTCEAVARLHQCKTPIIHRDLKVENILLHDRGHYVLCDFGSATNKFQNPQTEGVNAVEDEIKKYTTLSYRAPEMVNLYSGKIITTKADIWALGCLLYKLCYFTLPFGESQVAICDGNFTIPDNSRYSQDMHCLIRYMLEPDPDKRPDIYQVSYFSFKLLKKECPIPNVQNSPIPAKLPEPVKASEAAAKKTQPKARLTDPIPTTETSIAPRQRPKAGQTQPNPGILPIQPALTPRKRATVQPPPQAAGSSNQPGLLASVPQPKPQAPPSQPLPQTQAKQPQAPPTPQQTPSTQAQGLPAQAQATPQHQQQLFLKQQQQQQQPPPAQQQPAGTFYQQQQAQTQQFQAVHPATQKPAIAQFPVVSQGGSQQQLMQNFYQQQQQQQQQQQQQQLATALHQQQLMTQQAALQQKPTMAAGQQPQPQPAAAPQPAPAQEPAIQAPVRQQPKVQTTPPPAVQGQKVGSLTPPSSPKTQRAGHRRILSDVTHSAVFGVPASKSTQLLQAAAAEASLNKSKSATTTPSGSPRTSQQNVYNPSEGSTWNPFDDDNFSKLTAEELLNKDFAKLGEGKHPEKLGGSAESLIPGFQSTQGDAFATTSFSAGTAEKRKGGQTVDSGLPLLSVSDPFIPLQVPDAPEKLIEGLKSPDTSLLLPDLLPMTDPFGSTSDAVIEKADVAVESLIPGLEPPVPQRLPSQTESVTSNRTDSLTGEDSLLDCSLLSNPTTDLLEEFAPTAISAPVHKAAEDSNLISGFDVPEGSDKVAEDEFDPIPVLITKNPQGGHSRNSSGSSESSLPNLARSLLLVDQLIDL
Chain of ABL1 (P00519 28-1130 limits assumed): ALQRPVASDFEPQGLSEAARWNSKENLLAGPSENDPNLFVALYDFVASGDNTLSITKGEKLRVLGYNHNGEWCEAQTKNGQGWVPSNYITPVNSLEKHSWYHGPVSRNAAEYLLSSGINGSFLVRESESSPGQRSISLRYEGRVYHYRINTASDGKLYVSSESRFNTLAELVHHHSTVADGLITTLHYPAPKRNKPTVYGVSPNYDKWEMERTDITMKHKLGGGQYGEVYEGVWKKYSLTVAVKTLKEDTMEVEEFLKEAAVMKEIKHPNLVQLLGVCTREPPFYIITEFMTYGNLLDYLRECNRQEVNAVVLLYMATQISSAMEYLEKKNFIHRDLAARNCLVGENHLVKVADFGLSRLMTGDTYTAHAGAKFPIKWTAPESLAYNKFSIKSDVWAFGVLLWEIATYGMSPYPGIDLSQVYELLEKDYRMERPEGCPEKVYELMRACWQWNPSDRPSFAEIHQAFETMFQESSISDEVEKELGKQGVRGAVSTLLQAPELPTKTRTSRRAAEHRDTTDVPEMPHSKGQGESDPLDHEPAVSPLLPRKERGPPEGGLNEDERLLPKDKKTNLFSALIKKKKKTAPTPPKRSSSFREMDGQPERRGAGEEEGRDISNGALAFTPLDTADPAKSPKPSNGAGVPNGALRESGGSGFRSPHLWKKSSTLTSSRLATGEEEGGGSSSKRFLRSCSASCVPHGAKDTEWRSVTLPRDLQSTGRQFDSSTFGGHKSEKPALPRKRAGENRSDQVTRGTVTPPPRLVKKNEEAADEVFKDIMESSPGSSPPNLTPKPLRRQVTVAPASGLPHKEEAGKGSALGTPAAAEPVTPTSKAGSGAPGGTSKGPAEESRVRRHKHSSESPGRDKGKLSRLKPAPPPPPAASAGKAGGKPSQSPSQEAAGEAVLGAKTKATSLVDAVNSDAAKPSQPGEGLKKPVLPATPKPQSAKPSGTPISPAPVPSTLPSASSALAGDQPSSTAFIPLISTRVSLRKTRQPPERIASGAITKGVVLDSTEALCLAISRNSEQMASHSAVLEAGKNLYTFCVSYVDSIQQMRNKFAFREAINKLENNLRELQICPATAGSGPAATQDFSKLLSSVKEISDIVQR

For the molecule `COc1cc(Nc2nccc(N3CCC(NC(=O)c4cccc(NC(C)=O)c4)C3)n2)cc(OC)c1OC` (centres unmarked) [GSK1379754A], the CATDS came to 0 in assay [1]; 0 in assay [2]; 0 in assay [3]; 0.1752 in assay [4]; 0 in assay [5]. In addition, the potency estimated from few doses in assay [4] (setting [6]) was 410 nM.
For the molecule `COc1cc(Nc2nccc(N3CCC(NC(=O)C4COc5ccccc5O4)C3)n2)cc(OC)c1OC` (centres unmarked) [GSK1379761A], the CATDS in assay [1], in assay [2], in assay [3], in assay [4] and in assay [5] was 0 throughout. Further, the potency estimated from few doses in assay [4] (setting [6]) was above 1000 nM.
On to `COC(=O)c1cccc(NC(=O)NC2CCN(c3ccnc(Nc4cc(OC)c(OC)c(OC)c4)n3)C2)c1` (centres unmarked) [GSK1379767A], for which the CATDS in assay [1], in assay [2], in assay [3], in assay [4] and in assay [5] was 0 in each case. The potency estimated from few doses in assay [4] (setting [6]) was above 1000 nM.
As to `COc1cc(Nc2nccc(N3CCC(NS(=O)(=O)c4ccc(NC(C)=O)cc4)CC3)n2)cc(OC)c1OC` [GSK1379825A], the CATDS in assay [1], in assay [2], in assay [3], in assay [4] and in assay [5] was 0 throughout.
`O=C(NCCNc1ccnc(Nc2ccc(F)cc2)n1)Nc1ccccc1F` [GSK1379880A]: the CATDS in assay [1], in assay [2], in assay [3], in assay [4] and in assay [5] was 0 throughout.
Regarding `COc1ccc(Nc2nccc(NCCNC(=O)Nc3cc(C)ccc3C)n2)cc1` [GSK1379899A], the CATDS in assay [1], in assay [2], in assay [3], in assay [4] and in assay [5] was 0 each time. Moreover, the potency estimated from few doses in assay [4] (setting [6]) was above 1000 nM.
For the molecule `O=C(NCCNc1ccnc(NCc2ccc(F)cc2)n1)c1cc2ccccc2s1` [GSK1379944A], the CATDS in assay [1], in assay [2], in assay [3], in assay [4] and in assay [5] was 0 each time.
For `CCNCC(Cc1ccccc1)NC(=O)c1cc(Br)c(-c2ccnc3[nH]ccc23)s1` (centres unmarked) [GSK1383280A], the CATDS in assay [1], in assay [2], in assay [3], in assay [4] and in assay [5] was 0 in each case.
As to `CC(C)NCC(Cc1ccccc1)NC(=O)c1cc(Br)c(-c2ccnc3[nH]ccc23)s1` (centres unmarked) [GSK1383281A], the CATDS in assay [1], in assay [2], in assay [3], in assay [4] and in assay [5] was 0 throughout.
`COc1ccc(C[C@@H](CN)NC(=O)c2cc(Br)c(-c3ccnc4[nH]ccc34)s2)cc1` [GSK1389063A]: the CATDS in assay [1], in assay [2], in assay [3], in assay [4] and in assay [5] was 0 throughout.
On to `COc1cc(N2CCN(C(C)C)CC2)ccc1Nc1nc(Nc2ccc(F)cc2C(=O)NC[C@@H](O)CO)c2cc[nH]c2n1` [GSK1392956A], for which the CATDS in assay [1], in assay [2], in assay [3], in assay [4] and in assay [5] was 0 each time.
Turning to `Cc1ccc(NC(=O)c2cccc(C#N)c2)cc1-c1ccc(C(=O)Nc2ccncc2)cc1` [GSK1398463A], the CATDS in assay [1], in assay [2], in assay [3], in assay [4] and in assay [5] was 0 in each case.
Take `Cc1ccc(NC(=O)c2ccc(Cl)cc2)cc1-c1ccc(C(=O)Nc2ccncc2)cc1` [GSK1398467A]: the CATDS in assay [1] is 0; in assay [2], 0.2266; in assay [3], 0; in assay [4], 0; in assay [5] it was 0. Also, the potency estimated from few doses in assay [2] (sheet "Kinobeads Drugmatrix -nanomolar" (only nanomolar interactions), read-out: Kinobeads Drugmatrix -nanomolar: apparent Kd, ACOX1) is 761 nM.
As for `Cc1ccc(NC(=O)Nc2ccccc2)cc1-c1ccc(C(=O)Nc2ccncc2)cc1` [GSK1398471A], the CATDS in assay [1], in assay [2], in assay [3], in assay [4] and in assay [5] was 0 throughout.
For the molecule `Cc1ccc(NC(=O)Nc2ccccc2F)cc1-c1ccc(C(=O)Nc2ccncc2)cc1` [GSK1398477_KCGS], the CATDS in assay [1] was determined as 0.02269; in assay [2], 0; in assay [3], 0.01477; in assay [4], 0.01281; in assay [5] it was 0.0136.
`NC[C@H](Cc1ccc(C(F)(F)F)cc1)NC(=O)c1cc(Br)c(-c2ccnc3[nH]ccc23)s1` [GSK1487252A]: the CATDS in assay [1], in assay [2], in assay [3], in assay [4] and in assay [5] was 0 each time.
For the molecule `COc1cc(N2CCN(C(C)C)CC2)ccc1Nc1nc(Nc2cccc3ncccc23)c2cc[nH]c2n1` [GSK1511931A], the CATDS in assay [1], in assay [2], in assay [3], in assay [4] and in assay [5] was 0 in each case.
As to `NC[C@H](CC1CCCCC1)NC(=O)c1cc(Br)c(-c2ccnc3[nH]ccc23)s1` [GSK1581427A], the CATDS in assay [1], in assay [2], in assay [3], in assay [4] and in assay [5] was 0 each time.
Take `NC[C@H](CC1CCCCC1)NC(=O)c1ccc(-c2ccnc3[nH]ccc23)s1` [GSK1581428A]: the CATDS in assay [1] is given as 0; in assay [2] it was 0; in assay [3], 0; in assay [4], 0.07203; in assay [5] it was 0. Also, the potency estimated from few doses in assay [4] is 54.5 nM.
As for `Nc1ncc(-c2ccc3nccc(-c4ccncc4)c3c2)cc1S(=O)(=O)N1CCOCC1` [GSK1627798A], the CATDS in assay [1], in assay [2], in assay [3], in assay [4] and in assay [5] was 0 throughout.
With `Cc1cc(N2CCC(NS(=O)(=O)c3ccc(F)cc3)CC2)nc(Nc2cccc(C#N)c2)n1` [GSK1653537A], the CATDS in assay [1], in assay [2], in assay [3], in assay [4] and in assay [5] was 0 throughout.
As for `COc1ccc(S(=O)(=O)NC2CCN(c3cc(C)nc(Nc4cccc(C#N)c4)n3)CC2)cc1` [GSK1653539A], the CATDS in assay [1], in assay [2], in assay [3], in assay [4] and in assay [5] was 0 throughout.
Consider `Cc1occc1-c1nc(N)c(OC[C@@H](N)Cc2c[nH]c3ccccc23)cc1-c1cc2c(C)n[nH]c2cn1` [GSK1660450B], for which the CATDS in assay [1], in assay [2], in assay [3], in assay [4] and in assay [5] was 0 each time. In addition, in assay [4] (setting [6]), the potency estimated from few doses was above 1000 nM.

Values taken from article PMC11062922 (Nature Chemical Biology, 2023).
